{
  "source": "patent US20040253718A1",
  "about": "“Methods of producing neurons” (priority 2003, published 2004)",
  "key": {"[1]": {"tested_on": "UMC from skin and adipose tissue", "test": "Culture of non-adherent UMC from skin and adipose tissue", "type": "cell-based, human", "experimental": "Cells were harvested and enriched in vitro for UMC by initiation of cultures from a skin biopsy obtained from a normal healthy human volunteer as follows. Biopsies of about 10 to about 200 mm^3 were obtained from the post auriculum area, and fibroblast tissue culture initiated as described above using DMEM containing 4500 mg/L D-glucose, 2 mM L-glutamine, nonessential amino acids, and 10% FBS. Colonies of non-adherent, actively growing cells were observed after adherent fibroblasts had reached full confluence in passage two or three. This process could be shortened by initiation of the culture in low serum and by the presence of 5 ng/ml aFGF, or by growth of the cells in a plasma clot directly from tissue (see Example 2) with addition of 300 mM CaCl2 to a final concentration of 15 mM. […] The colonies were collected by aspiration of culture medium containing the floating colonies and centrifugation of this medium. The cells pelleted by centrifugation were transferred to new tissue culture vessels by direct seeding in fresh culture medium containing aFGF and heparin (DMEM containing 4500 mg/L D-glucose, 2 mM L-glutamine, 2.5% heat inactivated FBS, 5 ng/mL recombinant human aFGF, and 5 μg/mL heparin). The cell suspension was added to fresh tissue culture flasks, which were incubated at 37° C. […]"}, "dermal-derived UMC": {"tested_on": "dermal-derived UMC", "test": "Culture of UMC in plasma clots to generate neurons", "type": "cell-based, human", "conditions": "aFGF as the only growth factor in the culture medium", "experimental": "The presence of higher concentration of Ca^2+ than normally present in culture medium (i.e., about 2 mM) was essential for growth of neurons in the plasma clot UMC cultures.\nLyophilized bovine plasma (Sigma Aldrich Co., St. Louis, Mo.; Cat. No. P-4639) was reconstituted with an appropriate volume of tissue culture medium not containing heparin, e.g., DMEM or Neurobasal medium (see above). An appropriate volume of a stock solution of CaCl2 (e.g., 300 mM) was added to a series of plastic tissue culture dishes (one set having a diameter of 30 mm and another set having a diameter of 60 mm) so as to give a final concentration of 15 mM after addition of plasma. Plasma was added to the culture dishes (1 ml to 30 mm dishes and 2 ml to the 60 mm dishes), which were swirled in order to mix the CaCl2 and plasma. […]\nThe dishes were then incubated at room temperature or 37° C. until the plasma had clotted. […] The dishes were then stored in a tissue culture incubator at 37° C. in at atmosphere of 10% CO2 until ready for use. A small quantity (about 5 cells to about 10^5 cells per clot) of dermal-derived UMC prepared as described in Example 1 was added to each dish and the cells were allowed to settle onto each clot. […]"}},
  "data": [
    {"substance": "aFGF: recombinant human acidic fibroblast growth factor", "values": [
      {"measurement": "morphology of cells in culture", "setting": "[1]; in the presence of aFGF", "value": "morphologically homogeneous in appearance and had a cobblestone-like morphology"},
      {"measurement": "fate of cells in culture", "setting": "[1]; upon removal of aFGF from the culture medium", "value": "most of the cells fully differentiated into adherent fibroblasts"},
      {"measurement": "growth of human neurons", "setting": "dermal-derived UMC", "value": "Enhanced growth"}
    ]}
  ]
}
